The source made the active and inactive calls.
Experiments:
Kallikrein-7 = Kallikrein-7 (Homo sapiens, UniProt P49862); assay: Fluorescence Intensity-based biochemical primary high throughput dose response assay to identify activators of kallikrein-7 (K7) zymogen.
Beta-galactosidase = Beta-galactosidase (Escherichia coli, UniProt Q8VNN2); assay: Dose response counterscreen for EBI2 assay utilizing the enzyme, b-galactosidase.; assay type: functional
HEK293 = assay: EBV LMP1 TES2 canonical NF-kB signalling blockers – cell-based, HEK293, luciferase, cherry-pick, dose response (AID 588343); assay type: functional, Homo sapiens; settings: Homo sapiens, HEK293
Interleukin-8 [1] = target: T1, Interleukin-8 (Homo sapiens, UniProt P10145); assay: Dose Response confirmation of uHTS small molecule hits for cystic fibrosis induced NFkb Inhibitors in a PAF-induced IL8 counterscreen.; assay type: functional; settings: read-out: IC50_Mean
T1 sequence (P10145 whole entry): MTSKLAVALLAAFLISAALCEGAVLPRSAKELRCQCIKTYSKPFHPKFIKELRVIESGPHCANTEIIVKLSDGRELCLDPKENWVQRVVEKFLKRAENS

Interleukin-8 [2] = target: T1, Interleukin-8; assay: Dose Response confirmation of uHTS small molecule hits for cystic fibrosis induced NFkb Inhibitors in a TNFa-induced IL8 counterscreen.; assay type: functional; settings: read-out: IC50_Mean
[3] = target: T2, Heat shock factor protein 1 (Mus musculus, UniProt P38532); assay: decrease of HSF1-responsive luciferase luminescence – cell-based, NIH3T3, dose retest, confirmation (AID 2382); assay type: functional;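 further: NIH3T3 fibroblasts with HSF1-driven luciferase reporter stressed by proteasome inhibitor MG132; luminescence from HSF1-driven luciferase expression after 8 hours of MG132 stress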
T2 sequence (P38532 whole entry): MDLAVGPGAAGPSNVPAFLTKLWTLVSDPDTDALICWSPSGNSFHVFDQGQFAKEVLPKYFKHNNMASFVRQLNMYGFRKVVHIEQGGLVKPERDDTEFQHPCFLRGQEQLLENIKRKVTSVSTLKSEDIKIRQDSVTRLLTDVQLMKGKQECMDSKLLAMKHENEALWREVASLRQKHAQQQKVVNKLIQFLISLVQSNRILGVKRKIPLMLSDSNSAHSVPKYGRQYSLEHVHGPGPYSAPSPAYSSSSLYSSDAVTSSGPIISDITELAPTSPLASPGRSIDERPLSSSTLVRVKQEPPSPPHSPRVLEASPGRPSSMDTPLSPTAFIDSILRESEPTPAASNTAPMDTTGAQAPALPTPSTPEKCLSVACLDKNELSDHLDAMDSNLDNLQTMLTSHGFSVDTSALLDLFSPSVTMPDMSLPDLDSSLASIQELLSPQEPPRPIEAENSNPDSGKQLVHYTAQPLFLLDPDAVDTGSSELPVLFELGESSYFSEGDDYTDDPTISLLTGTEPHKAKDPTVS

[4] = Counterscreen for inhibitors of Trypanosoma brucei methionyl tRNA synthetase (MetRS): Luminescence-based cell-based high throughput dose response assay to identify compounds that are cytotoxic to Jurkat human T lymphocyte cells.; assay type: functional
[5] = target: T3, Methionyl-tRNA synthetase, putative (Trypanosoma brucei brucei, UniProt Q38C91); assay type: functional, Trypanosoma brucei brucei strain 927/4 GUTat10.1
T3 sequence (Q38C91 whole entry): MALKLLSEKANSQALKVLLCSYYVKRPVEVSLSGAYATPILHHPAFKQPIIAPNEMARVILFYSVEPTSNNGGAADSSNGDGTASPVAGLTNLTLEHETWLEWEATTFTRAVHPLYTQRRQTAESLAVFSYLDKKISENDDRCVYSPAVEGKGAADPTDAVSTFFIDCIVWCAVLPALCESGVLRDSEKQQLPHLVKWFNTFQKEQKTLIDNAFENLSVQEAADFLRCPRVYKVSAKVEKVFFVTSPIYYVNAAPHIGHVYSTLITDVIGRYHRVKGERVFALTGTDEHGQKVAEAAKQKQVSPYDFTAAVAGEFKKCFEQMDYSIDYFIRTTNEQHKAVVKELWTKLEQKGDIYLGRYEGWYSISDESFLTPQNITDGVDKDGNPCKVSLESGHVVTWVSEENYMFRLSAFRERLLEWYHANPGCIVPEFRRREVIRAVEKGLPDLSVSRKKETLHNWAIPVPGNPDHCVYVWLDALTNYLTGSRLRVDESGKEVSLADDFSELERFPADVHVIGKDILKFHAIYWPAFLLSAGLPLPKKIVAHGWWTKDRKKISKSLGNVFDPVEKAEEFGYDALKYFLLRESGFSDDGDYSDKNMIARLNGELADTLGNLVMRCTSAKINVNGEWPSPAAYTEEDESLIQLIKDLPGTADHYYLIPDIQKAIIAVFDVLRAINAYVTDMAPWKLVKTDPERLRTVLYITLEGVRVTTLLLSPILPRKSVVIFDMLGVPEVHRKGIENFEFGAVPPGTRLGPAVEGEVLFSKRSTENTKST

[6] = target: T4, Rac GTPase-activating protein 1 (Homo sapiens, UniProt Q9H0H5); assay: blockers of MgcRacGAP-driven Rac1 GTP hydrolysis – biochemical, ADP Hunter fluorescence, primary and confirmatory, confirmation (AID 624330); assay type: functional
T4 sequence (Q9H0H5 whole entry): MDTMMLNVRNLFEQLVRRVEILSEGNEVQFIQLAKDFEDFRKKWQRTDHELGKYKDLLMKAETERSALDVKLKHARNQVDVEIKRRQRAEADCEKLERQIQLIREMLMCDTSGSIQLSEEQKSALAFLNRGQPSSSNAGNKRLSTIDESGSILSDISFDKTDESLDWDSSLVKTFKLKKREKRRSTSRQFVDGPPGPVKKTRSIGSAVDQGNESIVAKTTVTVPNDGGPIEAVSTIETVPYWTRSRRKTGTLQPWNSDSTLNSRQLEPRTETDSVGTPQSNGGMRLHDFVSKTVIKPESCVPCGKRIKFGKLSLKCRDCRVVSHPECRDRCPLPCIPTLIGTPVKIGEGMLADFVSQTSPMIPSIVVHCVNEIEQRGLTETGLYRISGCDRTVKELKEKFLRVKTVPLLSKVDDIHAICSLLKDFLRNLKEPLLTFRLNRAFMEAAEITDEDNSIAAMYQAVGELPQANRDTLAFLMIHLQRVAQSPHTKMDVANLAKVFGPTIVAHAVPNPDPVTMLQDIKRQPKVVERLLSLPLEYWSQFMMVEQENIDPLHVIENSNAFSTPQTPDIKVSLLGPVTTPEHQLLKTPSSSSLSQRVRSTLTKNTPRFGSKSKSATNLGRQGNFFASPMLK

[7] = target: T3, Methionyl-tRNA synthetase, putative; assay type: functional, Trypanosoma brucei brucei strain 927/4 GUTat10.1; remark: listed apart in the source
[8] = target: FAD-linked sulfhydryl oxidase ALR (Homo sapiens, UniProt P55789); assay: ALR-catalysed DTT oxidation blockers – biochemical, H2O2 detection, luminescence, cherry-pick, dose response (AID 493248)
Chain of FAD-linked sulfhydryl oxidase ALR (P55789 whole entry): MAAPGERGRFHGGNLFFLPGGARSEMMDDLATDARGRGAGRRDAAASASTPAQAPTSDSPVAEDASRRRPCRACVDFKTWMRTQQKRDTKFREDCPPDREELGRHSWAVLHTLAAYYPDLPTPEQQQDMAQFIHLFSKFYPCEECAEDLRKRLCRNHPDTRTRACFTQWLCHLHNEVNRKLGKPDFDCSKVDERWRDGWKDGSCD

[9] = viability loss in HeLa cells – cytotoxicity control for MgcRacGAP inhibitor project, dose response (AID 624300); assay type: functional
[10] = reduced cellular PGC1a acetyl-lysine signal – cell-based, cherry-picked samples, dose response (AID 720514); assay type: functional;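 further: potency may reflect raised or lowered acetylation signal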
cells = assay type: functional, cell-based; settings: HEK-CNG
Galanin receptor type 3 = target: T5, Galanin receptor type 3 (Homo sapiens, UniProt O60755); assay: Fluorescence-based cell-based primary high throughput dose response assay to identify antagonists of the Galanin Receptor 3 (GalR3).; assay type: functional
T5 sequence (O60755 whole entry): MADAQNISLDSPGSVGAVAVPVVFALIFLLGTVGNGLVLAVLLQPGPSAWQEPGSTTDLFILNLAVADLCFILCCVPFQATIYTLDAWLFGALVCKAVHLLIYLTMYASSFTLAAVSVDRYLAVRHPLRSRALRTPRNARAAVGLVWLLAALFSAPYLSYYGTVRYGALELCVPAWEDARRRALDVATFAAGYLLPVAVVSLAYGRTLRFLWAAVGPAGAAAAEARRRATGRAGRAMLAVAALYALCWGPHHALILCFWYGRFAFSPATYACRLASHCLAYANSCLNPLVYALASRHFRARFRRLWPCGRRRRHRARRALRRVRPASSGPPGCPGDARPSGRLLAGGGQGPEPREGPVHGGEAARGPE

Chain of Kallikrein-7 (P49862 whole entry): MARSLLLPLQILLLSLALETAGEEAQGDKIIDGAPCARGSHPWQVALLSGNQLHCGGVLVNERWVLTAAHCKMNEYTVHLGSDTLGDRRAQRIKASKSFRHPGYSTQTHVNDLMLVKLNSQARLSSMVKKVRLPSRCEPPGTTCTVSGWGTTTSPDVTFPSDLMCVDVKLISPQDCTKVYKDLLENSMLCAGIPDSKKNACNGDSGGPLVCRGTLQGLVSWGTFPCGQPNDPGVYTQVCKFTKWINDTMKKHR
Chain of Beta-galactosidase (Q8VNN2 whole entry): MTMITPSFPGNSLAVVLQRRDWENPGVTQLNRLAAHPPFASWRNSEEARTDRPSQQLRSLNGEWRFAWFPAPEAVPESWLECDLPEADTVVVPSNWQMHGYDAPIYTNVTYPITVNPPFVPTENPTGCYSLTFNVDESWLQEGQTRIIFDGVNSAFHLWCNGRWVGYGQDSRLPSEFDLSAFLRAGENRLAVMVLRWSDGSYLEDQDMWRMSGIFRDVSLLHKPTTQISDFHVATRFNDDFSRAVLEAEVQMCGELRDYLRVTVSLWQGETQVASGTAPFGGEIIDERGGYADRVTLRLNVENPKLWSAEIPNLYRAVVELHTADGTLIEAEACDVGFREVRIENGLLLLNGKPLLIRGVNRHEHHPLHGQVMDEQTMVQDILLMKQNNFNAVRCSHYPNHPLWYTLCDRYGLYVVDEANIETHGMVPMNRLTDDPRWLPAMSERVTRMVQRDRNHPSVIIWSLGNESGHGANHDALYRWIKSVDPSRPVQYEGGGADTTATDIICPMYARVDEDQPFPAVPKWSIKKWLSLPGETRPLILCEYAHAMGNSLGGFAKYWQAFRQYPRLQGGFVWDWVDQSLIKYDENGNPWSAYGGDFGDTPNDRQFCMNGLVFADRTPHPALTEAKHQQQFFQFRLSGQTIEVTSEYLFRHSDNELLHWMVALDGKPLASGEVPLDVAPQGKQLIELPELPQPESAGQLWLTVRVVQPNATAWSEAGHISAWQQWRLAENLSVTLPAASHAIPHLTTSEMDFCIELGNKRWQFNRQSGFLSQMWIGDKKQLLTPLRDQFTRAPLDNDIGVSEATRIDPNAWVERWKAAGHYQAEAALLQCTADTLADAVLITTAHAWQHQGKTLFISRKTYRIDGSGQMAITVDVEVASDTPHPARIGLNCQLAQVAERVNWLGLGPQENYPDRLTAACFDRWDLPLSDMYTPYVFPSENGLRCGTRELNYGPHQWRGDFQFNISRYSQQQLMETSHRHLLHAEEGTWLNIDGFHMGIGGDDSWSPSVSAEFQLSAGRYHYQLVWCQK

For `CCOC(=O)c1cnc2c(C(=O)OC)cccc2c1NCc1ccco1`, the EC50 (Kallikrein-7) was > 69.5 µM (inactive).

With `O=C(/C=C/c1cccs1)N1CCC2(CC1)Oc1ccc(Cl)cc1C(=O)C21CC(c2ccccc2)=NO1` (centres undefined) the IC50 (Beta-galactosidase) was > 80 µM (inactive).

In the case of `CCCCN(c1ccccc1)c1ncnc(N)c1[N+](=O)[O-]`, the AC50 (HEK293) is reported as 14.3 µM (active), the IC50 (Interleukin-8 [1]) is reported as > 79 µM (inactive) and the IC50 (Interleukin-8 [2]) is reported as 39.7 µM (inactive). For the same compound, the EC50 [3] was 8.33 µM (active).

With `COc1cc(/C=N/Nc2nc3ccccc3[nH]2)ccc1O` the IC50 [4] was 83.3 µM (inactive), the IC50 [5] was 23.7 µM (inactive) and the IC50 [6] was 14 µM (active). For the same compound, the IC50 [7] was 102 µM (inactive), the AC50 [8] was 1.16 µM (active) and the CC50 [9] was 100 µM (active).

In the case of `CC(C)N(c1ccccc1)c1ccc(NC(S)=NCCN(C)C)cc1`, the CC50 [9] is reported as 100 µM (active).

In the case of `CC(C)CC#Cc1ccc([C@H]2[C@H](CO)N3C(=O)CN(C(=O)Nc4cc(F)ccc4F)C[C@@H]23)cc1`, the AC50 [10] is reported as 27.6 µM (active).

For `CC(=O)NS(=O)(=O)c1ccc(NC(=O)/C=C/c2cn(-c3ccccc3)nc2-c2ccccc2)cc1`, the IC50 [4] was 83.3 µM (inactive), the IC50 [5] was 49.8 µM (inactive) and the IC50 [7] was 12 µM (inactive).

For `CCCCC[C@H](O)/C=C/[C@H]1CCC(=O)[C@@H]1CCCCCCC(=O)N1CCCCC1CO` (some centres undefined), the EC50 (cells) was > 29.9 µM (inactive) and the IC50 (Galanin receptor type 3) was 3.54 µM (active).

— ChEMBL document CHEMBL1201862, “PubChem BioAssay data set” (2004)
